Assay results: patent publication US20240025862A1, “SUBSTITUTED N-PHENYLURACILS AND SALTS THEREOF, AND USE THEREOF AS HERBICIDAL ACTIVE SUBSTANCES” (Bayer Aktiengesellschaft, priority 2020, published 2024)

Tests used:
Assay type in all cases: in vivo
[1] = tested on: Abutilon theophrasti (ABUTH); assay: Post-emergence herbicidal action, greenhouse pot test; details: rated visually after about 3 weeks vs untreated controls, 100% = plants have died
Procedure, shortened: (§1)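 Activity was scored by eye about 3 weeks after treatment against untreated plants, where 100% means dead plants and 0% means no difference. Plants at the one-leaf stage received a foliar spray of WP or EC formulations in water plus 0.5% additive (600 l/ha, up to 20 g/ha). Plants were grown in sandy loam pots in a greenhouse for 2–3 weeks before spraying.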

[2] = tested on: Amaranthus retroflexus (AMARE); assay: as above; details: rated visually after about 3 weeks vs untreated controls, 100% = plants have died
Procedure, shortened: as §1

[3] = tested on: Pharbitis purpurea (PHBPU); assay: as above
Procedure, shortened: as §1

[4] = tested on: Polygonum convolvulus (POLCO); assay: as above
Procedure, shortened: as §1

Stellaria media (STEME) = assay: as above
Procedure, shortened: as §1

Veronica persica (VERPE) = assay: as above
Procedure, shortened: as §1

Viola tricolor (VIOTR) = assay: as above
Procedure, shortened: as §1

[5] = tested on: Alopecurus myosuroides (ALOMY); assay: Post-emergence herbicidal action, greenhouse pot test (also comparative test C)
Procedure, shortened: (§2)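 Visual rating against untreated controls, about 3 weeks after spraying, from 0% (like control) to 100% (plants dead). Weeds were treated at the one-leaf stage, 2–3 weeks after sowing in sandy loam, with aqueous WP/EC spray containing 0.5% additive at 600 l/ha. Doses were ≤20 g/ha, or ≤5 g/ha for comparative test C.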

[6] = tested on: Echinochloa crus-galli (ECHCG); assay: as above
Procedure, shortened: as §2

[7] = tested on: Matricaria inodora (MATIN); assay: as above
Procedure, shortened: as §2

Setaria viridis (SETVI) = assay: as above; details: for Post-emergence action against SETVI: 20 g/ha
Procedure, shortened: as §2

Brassica napus (BRSNW) = assay: Post-emergence crop plant compatibility, greenhouse pot test; details: 1.25 g/ha, vs untreated controls
Procedure, shortened: (§3)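 Values are visual % damage versus untreated controls (100% = plants died) about 3 weeks after treatment. Plants in sandy loam were sprayed at the one-leaf stage, 2–3 weeks after sowing, with aqueous WP/EC preparations plus 0.5% additive at 600 l/ha; a/b/c mark different dose levels.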

Glycine max (GLXMA) = assay: as above
Procedure, shortened: as §3

[8] = tested on: Triticum aestivum (TRZAS); assay: as above; details: vs untreated controls
Procedure, shortened: as §3

Oryza sativa (ORYSA) = assay: Post-emergence crop plant compatibility, greenhouse pot test (also comparative test C); details: for Post-emergence action against ORYSA (crop plant compatibility): vs untreated controls
Procedure, shortened: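 Visual damage versus untreated plants (0% = like control, 100% = plants died) was scored about 3 weeks after a post-emergence spray in greenhouse pots. Treatment: one-leaf stage, WP or EC in water at 600 l/ha with 0.5% additive; a/b/c mark different dosages on the same crop.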

Avena fatua (AVEFA) = assay: Post-emergence herbicidal action, greenhouse pot test; details: 20 g/ha, rated visually after about 3 weeks vs untreated controls, 100% = plants have died
Procedure, shortened: as §1

Zea mays (ZEAMX) = assay: Post-emergence crop plant compatibility, greenhouse pot test; details: 1.25 g/ha, vs untreated controls
Procedure, shortened: as §3

[9] = rated visually after about 3 weeks vs untreated controls, 100% = plants have died
[10] = application rate of 5 g or less per hectare, tables C1 to C4
[11] = comparative test C, application rate 1.25 g/ha

With `CCOCCOC(=O)C(C)Oc1ccccc1Sc1cc(-n2c(=O)cc(C(F)(F)F)n(C)c2=O)c(F)cc1Cl` (racemic) [I.2-2] the “Post-emergence action at 1.25 g/ha against ABUTH in %” value [1] was 80%, the “Post-emergence action at 5 g/ha against ABUTH in %” value [1] was 100% and the “Post-emergence action at 20 g/ha against ABUTH in %” value [1] was 100%. For the same compound, the “Post-emergence action at 1.25 g/ha against AMARE in %” value [2] was 100%, the “Post-emergence action at 5 g/ha against AMARE in %” value [2] was 100% and the “Post-emergence action at 20 g/ha against AMARE in %” value [2] was 100%. The “Post-emergence action against PHBPU in %” value ([3]; dosage 1.25 g/ha) was 100%, the “Post-emergence action against PHBPU in %” value ([3]; dosage 5 g/ha) was 100% and the “Post-emergence action against PHBPU in %” value ([3]; dosage 20 g/ha) was 100%. For the same compound, the “Post-emergence action against POLCO in %” value ([4]; dosage 5 g/ha) was 100%, the “Post-emergence action against POLCO in %” value ([4]; dosage 20 g/ha) was 100% and the “Post-emergence action against STEME” value (Stellaria media (STEME); 5 g/ha) was 100%. The “Post-emergence action against STEME” value (Stellaria media (STEME); 20 g/ha) was 100%, the “Post-emergence action against VERPE” value (Veronica persica (VERPE); 1.25 g/ha) was 100% and the “Post-emergence action against VERPE” value (Veronica persica (VERPE); 5 g/ha) was 100%. For the same compound, the “Post-emergence action against VERPE” value (Veronica persica (VERPE); 20 g/ha) was 100%, the “Post-emergence action against VIOTR” value (Viola tricolor (VIOTR); 1.25 g/ha) was 100% and the “Post-emergence action against VIOTR” value (Viola tricolor (VIOTR); 5 g/ha) was 100%. For the same compound, the “Post-emergence action against VIOTR” value (Viola tricolor (VIOTR); 20 g/ha) was 100%, the “Post-emergence action at 20 g/ha against ALOMY in %” value [5, 9] was 80% and the “Post-emergence action against ECHCG in %” value ([6]; dosage 20 g/ha) was 90%. The “Post-emergence action against MATIN in %” value ([7]; dosage 5 g/ha) was 80%, the “Post-emergence action against MATIN in %” value ([7]; dosage 20 g/ha) was 100% and the “Post-emergence action against SETVI” value (Setaria viridis (SETVI)) was 100%. The “Post-emergence action against SETVI in %” value (Setaria viridis (SETVI); dosage 1.25 g/ha) was 100%, the “Post-emergence action against SETVI in %” value (Setaria viridis (SETVI); dosage 5 g/ha) was 100% and the “Post-emergence action against BRSNW (crop plant compatibility)” value (Brassica napus (BRSNW)) was 10%. For the same compound, the “Post-emergence action against GLXMA in %” value (Glycine max (GLXMA); 1.25 g/ha) was 0%, the “Post-emergence action against GLXMA in %” value (Glycine max (GLXMA); 5 g/ha) was 0% and the “Post-emergence action against GLXMA in %” value (Glycine max (GLXMA); 20 g/ha) was 10%. The “Post-emergence action against TRZAS (crop plant compatibility)” value (“Post-emergence action against TRZAS” for short) ([8]; 1.25 g/ha) was 20%, the “Post-emergence action against TRZAS” value ([8]; 5 g/ha) was 20% and the “Post-emergence action against ORYSA (crop plant compatibility)” value (Oryza sativa (ORYSA); 1.25 g/ha) was 10%. For the same compound, the “Post-emergence action against ORYSA (crop plant compatibility)” value (Oryza sativa (ORYSA); 5 g/ha) was 10% and the “Post-emergence action against ORYSA in %” value (Oryza sativa (ORYSA); 20 g/ha, crop plant compatibility) was 20%.

For `Cn1c(C(F)(F)F)cc(=O)n(-c2cc(Oc3ccccc3OCC(=O)OC3COC3)c(Cl)cc2F)c1=O` [I.7-115], the “Post-emergence action at 1.25 g/ha against ABUTH in %” value [1] was 80%, the “Post-emergence action at 5 g/ha against ABUTH in %” value [1] was 100% and the “Post-emergence action at 20 g/ha against ABUTH in %” value [1] was 100%. The “Post-emergence action at 1.25 g/ha against AMARE in %” value [2] was 100%, the “Post-emergence action at 5 g/ha against AMARE in %” value [2] was 100% and the “Post-emergence action at 20 g/ha against AMARE in %” value [2] was 100%. The “Post-emergence action at 20 g/ha against AVEFA in %” value (Avena fatua (AVEFA)) was 100%, the “Post-emergence action against PHBPU in %” value ([3]; dosage 1.25 g/ha) was 100% and the “Post-emergence action against PHBPU in %” value ([3]; dosage 5 g/ha) was 100%. The “Post-emergence action against PHBPU in %” value ([3]; dosage 20 g/ha) was 100%, the “Post-emergence action against POLCO in %” value ([4]; dosage 5 g/ha) was 100% and the “Post-emergence action against POLCO in %” value ([4]; dosage 20 g/ha) was 100%. The “Post-emergence action against VERPE” value (Veronica persica (VERPE); 1.25 g/ha) was 100%, the “Post-emergence action against VERPE” value (Veronica persica (VERPE); 5 g/ha) was 100% and the “Post-emergence action against VERPE” value (Veronica persica (VERPE); 20 g/ha) was 100%. The “Post-emergence action against VIOTR” value (Viola tricolor (VIOTR); 1.25 g/ha) was 100%, the “Post-emergence action against VIOTR” value (Viola tricolor (VIOTR); 5 g/ha) was 100% and the “Post-emergence action against VIOTR” value (Viola tricolor (VIOTR); 20 g/ha) was 100%. For the same compound, the “Post-emergence action at 5 g/ha against ALOMY in %” value ([5]; 5 g/ha, rated visually after about 3 weeks vs untreated controls, 100% = plants have died) was 100%, the “Post-emergence action at 20 g/ha against ALOMY in %” value [5, 9] was 100% and the “herbicidal efficacy against ALOMY by comparison with literature compound a-17 / 3-14” value [5, 10] was “distinct improvement in herbicidal efficacy”. For the same compound, the “Post-emergence action at 1.25 g/ha against ECHCG in %” value ([6]; 1.25 g/ha, rated visually after about 3 weeks vs untreated controls, 100% = plants have died) was 100%, the “herbicidal efficacy against ECHCG by comparison with literature compound a-17 / 3-14” value [6, 10] was “distinct improvement in herbicidal efficacy” and the “ECHCG (efficacy in %)” value [6, 11] was 100%. The “Post-emergence action against ECHCG in %” value ([6]; dosage 5 g/ha) was 100%, the “Post-emergence action against ECHCG in %” value ([6]; dosage 20 g/ha) was 100% and the “herbicidal efficacy against MATIN by comparison with literature compound a-17 / 3-14” value [7, 10] was “distinct improvement in herbicidal efficacy”. The “MATIN (efficacy in %)” value [7, 11] was 100%, the “Post-emergence action against MATIN in %” value ([7]; dosage 1.25 g/ha) was 100% and the “Post-emergence action against MATIN in %” value ([7]; dosage 5 g/ha) was 100%. The “Post-emergence action against MATIN in %” value ([7]; dosage 20 g/ha) was 100%, the “Post-emergence action against SETVI” value (Setaria viridis (SETVI)) was 100% and the “herbicidal efficacy against SETVI by comparison with literature compound a-17 / 3-14” value (Setaria viridis (SETVI); [10]) was “distinct improvement in herbicidal efficacy”. For the same compound, the “SETVI (efficacy in %)” value (Setaria viridis (SETVI); [11]) was 100%, the “Post-emergence action against SETVI in %” value (Setaria viridis (SETVI); dosage 1.25 g/ha) was 100% and the “Post-emergence action against SETVI in %” value (Setaria viridis (SETVI); dosage 5 g/ha) was 100%. The “Post-emergence action against BRSNW (crop plant compatibility)” value (Brassica napus (BRSNW)) was 20%, the “Post-emergence action against TRZAS” value ([8]; 1.25 g/ha) was 0% and the “Post-emergence action against ZEAMX (crop plant compatibility)” value (Zea mays (ZEAMX)) was 20%. The “Post-emergence action against ORYSA (crop plant compatibility)” value (Oryza sativa (ORYSA); 1.25 g/ha) was 0%, the “compatibility with respect to the crop plant Oryza sativa (ORYSA) by comparison with literature compound a-17 / 3-14” value (Oryza sativa (ORYSA); application rate of 1.25 g per hectare, table C5) was “distinct improvement in compatibility” and the “ORYSA (efficacy in %)” value (Oryza sativa (ORYSA); comparative test C, application rate 1.25 g/ha, crop plant compatibility) was 0%.
